From patent US7799775B2, “Pyrimidine derivatives” (ASKA Pharmaceutical Co., Ltd., priority 2004, dated 2010)

molecular target: T1, human 5-HT1A receptor (Homo sapiens, UniProt P08908); test: Affinity measurement of the compounds to human 5-HT1A receptor (in vitro), [3H]8-OH-DPAT binding; conditions: test compound 100 nmols/L; [3H]8-OH-DPAT 0.25 nmols/L; CHO cell membrane expressing human 5-HT1A receptor; read-out: Percent Inhibition (%) on Each Receptor's Binding at 10^−7M, 5-HT1A
T1 construct: purchased Packard Bioscience; host or cells: CHO cells (membrane preparation)
T1 sequence (P08908 1-422): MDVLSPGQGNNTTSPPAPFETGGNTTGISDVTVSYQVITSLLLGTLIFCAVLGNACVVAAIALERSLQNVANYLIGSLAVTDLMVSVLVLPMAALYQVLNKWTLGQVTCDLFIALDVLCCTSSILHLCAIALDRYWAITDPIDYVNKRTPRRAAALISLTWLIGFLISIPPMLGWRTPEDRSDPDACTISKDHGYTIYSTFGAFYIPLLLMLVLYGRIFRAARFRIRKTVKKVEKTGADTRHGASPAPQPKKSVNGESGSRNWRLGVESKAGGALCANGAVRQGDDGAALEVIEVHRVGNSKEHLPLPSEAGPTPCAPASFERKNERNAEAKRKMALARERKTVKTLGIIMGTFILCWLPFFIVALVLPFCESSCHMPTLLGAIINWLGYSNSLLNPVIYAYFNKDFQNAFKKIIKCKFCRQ
Procedure, shortened: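 Membranes from CHO cells expressing human 5-HT1A were incubated 60 min at 27 °C with 0.25 nmol/L [3H]8-OH-DPAT and compound in Tris/MgSO4/EDTA/ascorbate buffer, pH 7.4. Bound radioactivity was collected on PEI-soaked GF/C filters and counted; percent inhibition was corrected for non-specific binding defined with 10 μmol/L 8-OH-DPAT.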

Row | Structure (SMILES) | inhibition at 0.1 µM [%]
1 | Cc1cc(N2CCN(CCCCc3nc4c(c(=O)n3C)CCCC4)CC2)nc2ccccc12 [Example 7-6, 3-methyl-2-[4-[4-(4-methylquinolin-2-yl)piperazin-1-yl]butyl]-5,6,7,8-tetrahydro-3H-quinazolin-4-one] | 97.4
2 | CCn1c(CCCCN2CCN(c3ccc4ccccc4n3)CC2)nc2c(c1=O)CCCC2 [Example 7-2, 3-2-[4-(4-quinolin-2-ylpiperazin-1-yl)butyl]-5,6,7,8-tetrahydro-3H-quinazolin-4-one] | 93.3
3 | c1cc2ccsc2c(N2CCN3CCC[C@H]3C2)n1 [Production Example 103, 7-((8aS)-octahydropyrrolo[1,2-a]pyrazin-2-yl)thieno[2,3-c]pyridine] | 91.4
4 | CCn1c(CCCCN2CCN(c3cc(C)c4ccccc4n3)CC2)nc2c(c1=O)CCCC2 [Example 7-7, 3-ethyl-2-[4-[4-(4-methylquinolin-2-yl)piperazin-1-yl]butyl]-5,6,7,8-tetrahydro-3H-quinazolin-4-one] | 96.9
5 | Nn1c(CCCCN2CCN(c3ccc4ccccc4n3)CC2)nc2cccc(Cl)c2c1=O [Example 4-25, 3-amino-5-chloro-2-[4-(4-quinolin-2-ylpiperazin-1-yl)butyl]-3H-quinazolin-4-one] | 99.4
6 | Clc1ccc2ccnc(N3CCNCC3)c2c1 [Production Example 49, 7-chloro-1-piperazin-1-ylisoquinoline] | 88.7
7 | Cc1ccc2ccnc(N3CCN(C)CC3)c2c1 [Production Example 47, 7-methyl-1-(4-methylpiperazin-1-yl)isoquinoline] | 90.6
8 | COc1ccc2ccnc(N3CCN4CCC[C@H]4C3)c2c1 [Production Example 72, 1-((8aS)-octahydropyrrolo[1,2-a]pyrazin-2-yl)-7-methoxyisoquinoline] | 96.7
9 | Clc1ccc2ccnc(N3CCN4CCC[C@H]4C3)c2c1 [Production Example 73, 7-chloro-1-((8aS)-octahydropyrrolo[1,2-a]pyrazin-2-yl)isoquinoline] | 98.3
10 | CN1CCN(c2nccc3ccsc23)CC1 [Production Example 6, 7-(4-methylpiperazin-1-yl)thieno[2,3-c]pyridine] | 90.1
11 | Nn1c(CCCCN2CCN(c3ccc4ccccc4n3)CC2)nc2ccccc2c1=O [Example 4-3, 3-amino-2-[4-(4-quinolin-2-ylpiperazin-1-yl)butyl]-3H-quinazolin-4-one] | 98.2
12 | CN1CCN(c2nccc3sccc23)CC1 [Production Example 8, 4-(4-methylpiperazin-1-yl)thieno[3,2-c]pyridine] | 78.3
13 | Cc1cc(N2CCN(CCCCc3nc4ccccc4c(=O)n3N)CC2)nc2ccccc12 [Example 4-4, 3-amino-2-[4-[4-(4-methylquinolin-2-yl)piperazin-1-yl]butyl]-3H-quinazolin-4-one] | 98.7
14 | COc1ccc2ccnc(N3CCNC(C)C3)c2c1 (stereo not shown) [Production Example 38, 7-methoxy-1-(3-methylpiperazin-1-yl)isoquinoline] | 94.8
15 | Cn1c(CCCCN2CCN(c3ccc4ccccc4n3)CC2)nc2ccccc2c1=O [Example 7-20, 3-methyl-2-[4-(4-quinolin-2-ylpiperazin-1-yl)butyl]-3H-quinazolin-4-one] | 101
16 | Nn1c(CCCCN2CCN(c3ccc4ccccc4n3)CC2)nc2c(c1=O)CCCC2 [Example 4-1, 3-amino-2-[4-(4-quinolin-2-ylpiperazin-1-yl)butyl]-5,6,7,8-tetrahydro-3H-quinazolin-4-one] | 101
17 | c1cc2ccsc2c(N2CCN3CCC[C@@H]3C2)n1 [Production Example 108, 7-((8aR)-octahydropyrrolo[1,2-a]pyrazin-2-yl)thieno[2,3-c]pyridine] | 90.6
18 | Cc1cc2c(N3CCN4CCC[C@H]4C3)nccc2s1 [Production Example 107, 4-((8aS)-octahydropyrrolo[1,2-a]pyrazin-2-yl)-2-methylthieno[3,2-c]-pyridine] | 98.5
19 | Nn1c(CCCCN2CCN(c3ccc4ccccc4n3)CC2)nc2ccsc2c1=O [Example 4-18, 3-amino-2-[4-(4-quinolin-2-ylpiperazin-1-yl)butyl]-3H-thieno[3,2-d]-pyrimidin-4-one] | 98
20 | c1cc2sccc2c(N2CCN3CCC[C@H]3C2)n1 [Production Example 104, 4-((8aS)-octahydropyrrolo[1,2-a]pyrazin-2-yl)thieno[3,2-c]pyridine] | 85.5
21 | c1cc2ccoc2c(N2CCN3CCC[C@H]3C2)n1 [Production Example 102, 7-((8aS)-octahydropyrrolo[1,2-a]pyrazin-2-yl)furo[2,3-c]-pyridine] | 95.4
22 | Cn1c(CCCCN2CCN(c3ccc4ccccc4n3)CC2)nc2c(c1=O)CCCC2 [Example 7-1, 3-methyl-2-[4-(4-quinolin-2-ylpiperazin-1-yl)butyl]-5,6,7,8-tetrahydro-3H-quinazolin-4-one] | 97.5
